The target of experiment [1] is T1, wild type human RORγt ligand binding domain (RORyt LBD) (Homo sapiens, UniProt P51449).
T1 construct: His-tag (N); TurboTEV protease cleavage site (ENLYFQG) (N); made in house; host or cells: E. coli (pHIS1, modified pET vector)
T1 sequence (P51449 258-518): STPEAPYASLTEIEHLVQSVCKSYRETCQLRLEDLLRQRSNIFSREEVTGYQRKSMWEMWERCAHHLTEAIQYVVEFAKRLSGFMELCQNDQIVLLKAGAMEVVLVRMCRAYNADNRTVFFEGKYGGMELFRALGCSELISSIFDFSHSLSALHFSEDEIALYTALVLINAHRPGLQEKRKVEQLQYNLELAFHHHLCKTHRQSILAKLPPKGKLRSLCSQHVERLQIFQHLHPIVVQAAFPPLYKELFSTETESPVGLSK
Put plainly: RORγt ThermoFluor assay (thermal shift, binding affinity KD).

The target in experiment [2] is T2, wild type human RORγt LBD (Homo sapiens, UniProt P51449).
T2 construct: expressed in transfected cells; host or cells: HEK293T
T2 sequence (P51449 258-518): T1 sequence (P51449 258-518)
Put plainly: RORγt (LBD) Reporter Assay (GAL4-luciferase, HEK293T cells). In kind it is cell-based. The following applies: for inhibition at 6 µM: HEK-293T, read-out: RORγt (LBD) Reporter Assay, % inhibition @ 6 µM, 6 µM compound concentration. (In a reporter assay the amount or activity of a reporter protein is the signal.)

We go through 18 molecules from EP3057951B1, “METHYLENE LINKED QUINOLINYL MODULATORS OF ROR-GAMMA-T” (Janssen Pharmaceutica NV, priority 2013, dated 2015).

Molecules are shown by their SMILES. Structures can show the parent of a compound that is named as a salt. Where two headings read alike, the source gives them in different places.

As to `COc1nc2ccc(C(O)(c3ccc(C(F)(F)F)nc3)c3cnnn3C)cc2c(Cl)c1Cc1ccc(C(F)(F)F)cc1` (racemic) [Example 75a, (4-Chloro-2-methoxy-3-(4-(trifluoromethyl)benzyl)quinolin-6-yl)(1-methyl-1H-1,2,3-triazol-5-yl)(6-(trifluoromethyl)pyridin-3-yl)methanol], in experiment [1], the Kd was 3.3 nM.
For the molecule `COc1nc2ccc(C(O)(c3cnnn3C)C3CN(C)C3)cc2c(Cl)c1Cc1ccc(C(F)(F)F)cc1` (racemic) [Example 90a, (4-Chloro-2-methoxy-3-(4-(trifluoromethyl)benzyl)quinolin-6-yl)(1-methyl-1H-1,2,3-triazol-5-yl)(1-methylazetidin-3-yl)methanol], the Kd in experiment [1] came out at 5 nM.
For `Cc1nc2ccc(C(O)(c3ccc(C(F)(F)F)nc3)c3cncn3C)cc2c(Cl)c1Cc1ccc(C(F)(F)F)cc1` (single isomer, unassigned) [Example 26b, (4-Chloro-2-methyl-3-(4-(trifluoromethyl)benzyl)quinolin-6-yl)(1-methyl-1H-imidazol-5-yl)(6-(trifluoromethyl)pyridin-3-yl)methanol], the Kd in experiment [1] was 15 nM.
`Cc1nc2ccc(C(O)(c3ccc(C(F)(F)F)nc3)c3cncn3C)cc2c(Cl)c1Cc1ccc(C(F)(F)F)cc1` (single isomer, unassigned) [Example 26c, (4-Chloro-2-methyl-3-(4-(trifluoromethyl)benzyl)quinolin-6-yl)(1-methyl-1H-imidazol-5-yl)(6-(trifluoromethyl)pyridin-3-yl)methanol]: the dissociation constant (Kd) in experiment [1] amounted to 0.77 nM.
Still for that read-out and setting: to `CC(=O)N1CCC(C(O)(c2ccccc2)c2ccc3nc(C)c(Cc4ccc(C(F)(F)F)cc4)c(Cl)c3c2)CC1` (single isomer, unassigned) [Example 27b, 1-(4-((4-Chloro-2-methyl-3-(4-(trifluoromethyl)benzyl)quinolin-6-yl)(hydroxy)(phenyl)methyl)piperidin-1-yl)ethanone] belongs 0.63 nM.
Regarding `CC(=O)N1CCC(C(O)(c2ccccc2)c2ccc3nc(C)c(Cc4ccc(C(F)(F)F)cc4)c(Cl)c3c2)CC1` (single isomer, unassigned) [Example 27c, 1-(4-((4-Chloro-2-methyl-3-(4-(trifluoromethyl)benzyl)quinolin-6-yl)(hydroxy)(phenyl)methyl)piperidin-1-yl)ethanone], the Kd in experiment [1] worked out at 14 nM.
With `Cc1ccc(C(O)(c2ccc3nc(C)c(Cc4ccc(C(F)(F)F)cc4)c(Cl)c3c2)c2cnnn2C)c(C)n1` (single isomer, unassigned) [Example 28b, (4-Chloro-2-methyl-3-(4-(trifluoromethyl)benzyl)quinolin-6-yl)(2,6-dimethylpyridin-3-yl)(1-methyl-1H-1,2,3-triazol-5-yl)methanol], in experiment [1], the Kd came out at 160 nM.
With `Cc1ccc(C(O)(c2ccc3nc(C)c(Cc4ccc(C(F)(F)F)cc4)c(Cl)c3c2)c2cnnn2C)c(C)n1` (single isomer, unassigned) [Example 28c, (4-Chloro-2-methyl-3-(4-(trifluoromethyl)benzyl)quinolin-6-yl)(2,6-dimethylpyridin-3-yl)(1-methyl-1H-1,2,3-triazol-5-yl)methanol], in experiment [1], the equilibrium dissociation constant (Kd) is 0.12 nM.
On the same count and under the same terms, to `Cc1nc2ccc(C(O)(c3cnnn3C)c3cnc(C)n3C)cc2c(Cl)c1Cc1ccc(C(F)(F)F)cc1` (single isomer, unassigned) [Example 29b, (4-Chloro-2-methyl-3-(4-(trifluoromethyl)benzyl)quinolin-6-yl)(1,2-dimethyl-1H-imidazol-5-yl)(1-methyl-1H-1,2,3-triazol-5-yl)methanol] belongs 0.04 nM; to `Cc1nc2ccc(C(O)(c3cnnn3C)c3cnc(C)n3C)cc2c(Cl)c1Cc1ccc(C(F)(F)F)cc1` (single isomer, unassigned) [Example 29c, (4-Chloro-2-methyl-3-(4-(trifluoromethyl)benzyl)quinolin-6-yl)(1,2-dimethyl-1H-imidazol-5-yl)(1-methyl-1H-1,2,3-triazol-5-yl)methanol], 0.15 nM; to `Cc1nc2ccc(C(O)(c3ccnc(C(F)(F)F)c3)c3cncn3C)cc2c(Cl)c1Cc1ccc(C(F)(F)F)cc1` (single isomer, unassigned) [Example 30b, (4-Chloro-2-methyl-3-(4-(trifluoromethyl)benzyl)quinolin-6-yl)(1-methyl-1H-imidazol-5-yl)(2-(trifluoromethyl)pyridin-4-yl)methanol], 300 nM.
As for `Cc1nc2ccc(C(O)(c3ccnc(C(F)(F)F)c3)c3cncn3C)cc2c(Cl)c1Cc1ccc(C(F)(F)F)cc1` (single isomer, unassigned) [Example 30c, (4-Chloro-2-methyl-3-(4-(trifluoromethyl)benzyl)quinolin-6-yl)(1-methyl-1H-imidazol-5-yl)(2-(trifluoromethyl)pyridin-4-yl)methanol], in experiment [1], the Kd was 0.092 nM.
In the case of `CC(=O)N1CC(C(O)(c2ccc3nc(C)c(Cc4ccc(C(F)(F)F)cc4)c(Cl)c3c2)c2cnnn2C)C1` (single isomer, unassigned) [Example 32b, 1-(3-((4-Chloro-2-methyl-3-(4-(trifluoromethyl)benzyl)quinolin-6-yl)(hydroxy)(1-methyl-1H-1,2,3-triazol-5-yl)methyl)azetidin-1-yl)ethanone], in experiment [1], the Kd worked out at 0.86 nM.
Regarding `CC(=O)N1CC(C(O)(c2ccc3nc(C)c(Cc4ccc(C(F)(F)F)cc4)c(Cl)c3c2)c2cnnn2C)C1` (single isomer, unassigned) [Example 32c, 1-(3-((4-Chloro-2-methyl-3-(4-(trifluoromethyl)benzyl)quinolin-6-yl)(hydroxy)(1-methyl-1H-1,2,3-triazol-5-yl)methyl)azetidin-1-yl)ethanone], in experiment [1], the Kd was determined as 1.3 nM.
For `CCc1nc2ccc(C(O)(c3cnnn3C)C3CCOCC3)cc2c(Cl)c1Cc1ccc(C(F)(F)F)cc1` (single isomer, unassigned) [Example 33b, (4-Chloro-2-ethyl-3-(4-(trifluoromethyl)benzyl)quinolin-6-yl)(1-methyl-1H-1,2,3-triazol-5-yl)(tetrahydro-2H-pyran-4-yl)methanol], the Kd in experiment [1] worked out at 0.08 nM.
As to `CCc1nc2ccc(C(O)(c3cnnn3C)C3CCOCC3)cc2c(Cl)c1Cc1ccc(C(F)(F)F)cc1` (single isomer, unassigned) [Example 33c, (4-Chloro-2-ethyl-3-(4-(trifluoromethyl)benzyl)quinolin-6-yl)(1-methyl-1H-1,2,3-triazol-5-yl)(tetrahydro-2H-pyran-4-yl)methanol], in experiment [1], the Kd amounted to 0.84 nM.
As to `COc1nc2ccc(C(O)(c3cnnn3C)c3cnc(C)n3C)cc2c(C#N)c1Cc1ccc(C(F)(F)F)nc1` (centres unmarked) [Example 44a, 6-((1,2-Dimethyl-1H-imidazol-5-yl)(hydroxy)(1-methyl-1H-1,2,3-triazol-5-yl)methyl)-2-methoxy-3-((6-(trifluoromethyl)pyridin-3-yl)methyl)quinoline-4-carbonitrile], the IC50 in experiment [2] (HEK293T cells, value after the comma with ∼, > or < could not be included in the average) worked out at 7.6 nM. Besides, in experiment [2], the inhibition at 6 µM was 97%.
Consider `Cn1cncc1C(O)(c1ccc(Cl)cc1)c1ccc2nc(Cl)c(Cc3ccc(C(F)(F)F)cc3)c(Cl)c2c1` (centres unmarked) [Example 155, (4-chlorophenyl)(2,4-dichloro-3-(4-(trifluoromethyl)benzyl)quinolin-6-yl)(1-methyl-1H-imidazol-5-yl)methanol•TFA], for which, in experiment [2] (HEK293T cells), the IC50 stood at 160 nM and the inhibition at 6 µM is 88%.

By Kd is commonly meant a measure of binding affinity in units of concentration. The term IC50 denotes the point on the concentration scale where inhibition reaches its midpoint. A higher IC50 goes with a need for much substance.
